# Experimental data published in patent publication US20210017200A1, “Hydrocarbyl Tin Complex with Antitumor Activity and Preparation Method Thereof” (priority 2020, published 2021).
# Tests used:
# Format in all cases: cell-based
# [1] = test system: A549 (human lung cancer cells); settings: MTT, 72 hours
# Protocol: (§1) MCF-7, HT-29, A549 and HepG2 cells are got from American Tissue Culture Collection, which are cultured with the culture medium containing 10% bovine fetal serum in a CO2-containing incubator at 37° C. The MTT method is used to detect cell proliferation and growth inhibition. The number of experimental cells is adjusted to obtain the absorbance at 570 nm, 6 concentrations are set for the compound test solution (0.1 nmol/L˜10 μmol/L). The cells are treated for 72 hours. At least 3 parallel experiments and 3 repeated experiments are conducted for each concentration. The IC50 value is determined by statistical analysis.
# (§2) Taking cisplatin as the contrast, the in-vitro growth inhibitory activity of Compound 1 and Compound 2 on tumor cells are tested, including MCF7 (human breast cancer cells), HT-29 (human colon cancer cells), A549 (human lung cancer cells) and HepG2 (liver cancer cells).
# [2] = test system: HT-29 (human colon cancer cells); settings: HT-29 cells, MTT, 72 hours
# Protocol: as §1, §2
# [3] = test system: HepG2 (liver cancer cells); settings: MTT, 72 hours
# Protocol: as §1, §2
# [4] = test system: MCF7 (human breast cancer cells); settings: MTT, 72 hours
# Protocol: as §1, §2
substance,measurement,setting,value
Tri-n-butyltin (IV) (4-methoxyphenyl) Acetylenyl Phosphonic Acid Derivatives [Compound 1],IC50,[1],243 nM
same,IC50,[2],65 nM
same,IC50,[3],329 nM
same,IC50,[4],853 nM
